Earlier results, collected in patent publication US10124030B2, “Skincare preparations” (KARYNG, LLC, priority 2016, dated 2018).

Tested on: epidermal SIRT1 protein expression
Settings: 0.02% vs untreated with UVB; UVB 0.2 J/cm^2

Oc1ccc(C=Cc2cc(O)cc(O)c2)cc1 [Resveratrol]
modulation of epidermal SIRT1 protein expression: −22%
